According to patent US11179501B2, “Bone morphogenetic protein pathway activation, compositions for ossification, and methods related thereto” (Emory University, priority 2011, dated 2021):
Structures can show the parent of a compound that is named as a salt. Each block holds one molecule with its values, some of them ahead of it.

Experiments:
[1] = system: C2C12 cells; assay: Alkaline phosphatase (ALP) assay: potentiation of BMP-2-induced ALP activity; conditions: C2C12 cells; for cell lifting from culture plates: ALP assay
Description: (§1) Their activity was evaluated by determining the potentiation of alkaline phosphatase activity in sub-optimal doses of BMP in the presence or absence of exogenously added noggin.
The BMP-potentiating activities of compounds may be evaluated by monitoring several markers of the osteoblastic phenotype corresponding to various time points during phenotype differentiation of C2C12 cells towards terminally differentiated osteoblasts.
The C2C12 cells at passages 5 to 10 were subcultured in T-75 cm^2 flasks in DMEM supplemented with 10% FBS at 37° C. in 5% CO2 with humidification. When the flasks reached 80% confluence, the cells were trypsinized and seeded in triplicate.
The C2C12 cells were plated at 200,000 cells/well in 6-well plates and grown overnight in DMEM containing 10% FBS. On day 2, the culture medium was replaced with DMEM containing 2% FBS and the cells were treated with various concentrations of compound for 24 hours. On day 3, the culture medium was replaced with DMEM containing 2% FBS and the cells were treated with 50 ng/ml of BMP-2 and various concentrations of compound for 72 hours. The cells were washed with phosphate-buffered saline (PBS) and lysed by addition of lysis buffer (10 mM Tris-HCl pH 8.0, 1 mM MgCl2 and 1.0% Triton X-100). The cell lysates were centrifuged for 5 minutes at 13,000×g. The supernatant was removed and the aliquots were assayed for ALP activity and protein amount. The ALP activity was measured in triplicate using an ALP assay kit (Sigma-Aldrich, St. Louis, Mo.) in microtiter plates. The protein amount was determined with Bio-Rad protein assay reagent (Bio-Rad, Hercules, Calif.) using bovine serum albumin (BSA) as a standard. The ALP activity (nmoles of p-nitrophenol per ml) was normalized to the protein amount (nmoles of p-nitrophenol per μg).

[2] = system: C2C12 cells; assay: BMP-Noggin competitive alkaline phosphatase (ALP) assay; type: cell-based, Mouse; conditions: BMP-Noggin competitive ALP assay, low cell number and low yield of protein
Description: as §1
Mouse C2C12 cells and Dulbecco's modified Eagle's medium (DMEM) were purchased from ATCC (Manassas, Va.). The non-heat inactivated fetal bovine serum (FBS) was purchased from HyClone Laboratories, Inc. (Logan, Utah). The C2C12 cells at passages 5 to 10 were subcultured in T-75 cm^2 flasks in DMEM supplemented with 10% FBS at 37° C. in 5% CO2 with humidification. When the flasks reached 80% confluence, the cells were trypsinized and seeded in triplicate.
The C2C12 cells were plated at 200,000 cells/well in 6-well plates and grown overnight in DMEM containing 10% FBS. On day 2, the culture medium was replaced with DMEM containing 2% FBS and the cells were treated with 90-100 ng/ml of BMP-2 (as noted in each experiment), various concentrations of compound, and 100-120 ng/ml of noggin (as noted in each experiment) for 72 hours. The cells were washed with phosphate-buffered saline (PBS) and lysed by addition of lysis buffer (10 mM Tris-HCl pH 8.0, 1 mM MgCl2 and 1.0% Triton X-100). The cell lysates were centrifuged for 5 minutes at 13,000×g. The supernatant was removed and the aliquots were assayed for ALP activity and protein amount. The ALP activity was measured in triplicate using an ALP assay kit (Sigma-Aldrich, St. Louis, Mo.) in microtiter plates. The protein amount was determined with Bio-Rad protein assay reagent (Bio-Rad, Hercules, Calif.) using bovine serum albumin (BSA) as a standard. The ALP activity (nmoles of p-nitrophenol per ml) was normalized to the protein amount (nmoles of p-nitrophenol per μg).

[3] = system: Sprague Dawley rats; assay: Collagen disc implantation with macrolides in rat ectopic model; type: in vivo; design: Ave. (Xray score): scale not given here; conditions: for Ave. (Xray score) / Results (bone, animals with bone of 4): 100 ul, collagen, no BMP-2, 4 weeks; for De novo bone formation: local, collagen disc, chest implant, absence of BMP-2, 4 weeks
Description: Sprague Dawley rats about 5-6 weeks of age were chest implanted with a collagen disc (diameter of 1.0 cm and height of 2.0 mm; total volume of 150 cubic millimeters) and doses of macrolides in the absence of BMP-2. After 4 weeks the rats were sacrificed and evaluated for bone growth. […] In certain embodiments, the disclosure contemplates local bone formation for fracture repair, segmental bone defects, spine fusion, bone grafting, and regional bone enhancement for osteopenic bones before they fracture (e.g. hip, vertebral body, etc) by deliver locally to induce local bone formation.

SMILES: C#CC(c1ccccc1)(c1ccccc1)n1ccnc1 [1-(1,1-diphenylprop-2-yn-1-yl)-1H-imidazole]
- Fold-increase of BMP-induced ALP (over BMP alone control) [1]: 7.0

- cell lifting from culture plates [1]: caused cell lifting from culture plates
SMILES: O=c1[nH]cc(F)c(=O)[nH]1 [5-fluorouracil]

SMILES: CC[C@@]1(O)C(=O)OCc2c1cc1n(c2=O)Cc2cc3c(N)cccc3nc2-1 [9-aminocamptothecin]
- Fold-increase of BMP-induced ALP (over BMP alone control) [1]: 10.0

SMILES: CCCSc1ccc2nc(NC(=O)OC)[nH]c2c1 [Albendazole, albendazole]
- cell lifting from culture plates [1]: caused cell lifting from culture plates

- cell lifting from culture plates [2]: caused cell lifting from culture plates
SMILES: C[C@H]1[C@H](OC(=O)CCC(=O)O)O[C@@H]2O[C@@]3(C)CC[C@H]4[C@H](C)CC[C@@H]1[C@@]24OO3 [Artesunate, 4-oxo-4-(((3R,5aS,6R,8aS,9R,10R,12R,12aR)-3,6,9-trimethyldecahydro-3H-3,12-epoxy[1,2]dioxepino[4,3-i]isochromen-10-yl)oxy)butanoic acid]

SMILES: Nc1nc2ccc(Cl)cc2c2nc(-c3ccco3)nn12 [CGS 15943, 9-chloro-2-(furan-2-yl)[1,2,4]triazolo[1,5-c]quinazolin-5-amine]
- cell lifting from culture plates [2]: caused cell lifting from culture plates

- cell lifting from culture plates [1]: caused cell lifting from culture plates
SMILES: C=C1/C(=C\C=C2/CCC[C@]3(C)[C@@H]([C@H](C)/C=C/[C@@H](O)C4CC4)CC[C@@H]23)C[C@@H](O)C[C@@H]1O [Calcipotriol, calcipotriol]

SMILES: COc1cc(CNC(=O)CCCCC=CC(C)C)ccc1O [Capsaicin, N-(4-hydroxy-3-methoxybenzyl)-8-methylnon-6-enamide]
- cell lifting from culture plates [2]: caused cell lifting from culture plates

SMILES: Nc1ccn([C@@H]2O[C@H](CO)[C@@H](O)[C@@H]2O)c(=O)n1 [Cytarabine HCl]
- Fold-increase of BMP-induced ALP (over BMP alone control) [1]: 2.0

SMILES: COc1cccc2c1C(=O)c1c(O)c3c(c(O)c1C2=O)C[C@@](O)(C(C)=O)C[C@@H]3O[C@H]1C[C@H](N)[C@H](O)[C@H](C)O1 [Daunorubicin hydrochloride]
- cell lifting from culture plates [1]: caused cell lifting from culture plates
- Fold-increase of BMP-induced ALP (over BMP alone control) [1]: 7.0

SMILES: Nc1ncn([C@H]2C[C@H](O)[C@@H](CO)O2)c(=O)n1 [Decitabine]
- Fold-increase of BMP-induced ALP (over BMP alone control) [1]: 6.0

SMILES: CC(=O)O[C@@]12CO[C@@H]1C[C@H](O)[C@@]1(C)C(=O)[C@H](O)C3=C(C)[C@@H](OC(=O)[C@H](O)[C@@H](NC(=O)OC(C)(C)C)c4ccccc4)C[C@](O)([C@@H](OC(=O)c4ccccc4)[C@H]21)C3(C)C [Docetaxel, (2aR,4S,4aS,6R,9S,11R,12S,12aR,12b S)-12b-acetoxy-9-(((2R,3S)-3-((tert-butoxycarbonyl)amino)-2-hydroxy-3-phenylpropanoyl)oxy)-4,6,11-trihydroxy-4a,8,13,13-tetramethyl-5-oxo-2a,3,4,4a,5,6,9,10,11,12,12a,12b-dodecahydro-1H-7,11-methanocyclodeca[3,4]benzo[1,2-b]oxet-12-yl benzoate]
- cell lifting from culture plates [1]: caused cell lifting from culture plates

SMILES: COc1cccc2c1C(=O)c1c(O)c3c(c(O)c1C2=O)C[C@@](O)(C(=O)CO)C[C@@H]3O[C@H]1C[C@H](N)[C@H](O)[C@H](C)O1 [Doxorubicin]
- Fold-increase of BMP-induced ALP (over BMP alone control) [1]: 4.0

- cell lifting from culture plates [1]: caused cell lifting from culture plates
SMILES: Clc1ccc(COC(Cn2ccnc2)c2ccc(Cl)cc2Cl)cc1 (centres unmarked) [Econazole nitrate, econazole nitrate]

SMILES: CO[C@H]1C[C@@H]2CC[C@@H](C)[C@@](O)(O2)C(=O)C(=O)N2CCCC[C@H]2C(=O)O[C@H]([C@H](C)C[C@@H]2CC[C@@H](OCCO)[C@H](OC)C2)CC(=O)[C@H](C)/C=C(\C)[C@@H](O)[C@@H](OC)C(=O)[C@H](C)C[C@H](C)/C=C/C=C/C=C/1C [Everolimus, everolimus]
- Ave. (Xray score) ([3]; dose 10 mM): 0
- Results (bone, animals with bone of 4) ([3]; dose 10 mM): No bone (0 of 4)
- Ave. (Xray score) ([3]; dose 15 mM): 2.5
- Results (bone, animals with bone of 4) ([3]; dose 15 mM): Bone (3 of 4)
- Ave. (Xray score) ([3]; dose 20 mM): 3.75
- Results (bone, animals with bone of 4) ([3]; dose 20 mM): Bone (4 of 4)
- Ave. (Xray score) ([3]; dose 25 mM): 4.75
- Results (bone, animals with bone of 4) ([3]; dose 25 mM): Bone (4 of 4)
- Ave. (Xray score) ([3]; dose 30 mM): 3.75
- Results (bone, animals with bone of 4) ([3]; dose 30 mM): Bone (3 of 4)
- Ave. (Xray score) ([3]; dose 35 mM): 4.75
- Results (bone, animals with bone of 4) ([3]; dose 35 mM): Bone (4 of 4)
- De novo bone formation [3]: De novo bone formation is demonstrated locally

- cell lifting from culture plates [2]: caused cell lifting from culture plates
SMILES: CC(=O)N1CCN(c2ccc(OC[C@H]3CO[C@](Cn4ccnc4)(c4ccc(Cl)cc4Cl)O3)cc2)CC1 [Ketoconazole, 1-(4-(4-(((2R,4S)-2-((1H-imidazol-1-yl)methyl)-2-(2,4-dichlorophenyl)-1,3-dioxolan-4-yl)methoxy)phenyl)piperazin-1-yl)ethanone]

- cell lifting from culture plates [2]: caused cell lifting from culture plates
SMILES: CC[C@H](C)C(=O)O[C@H]1C[C@@H](C)C=C2C=C[C@H](C)[C@H](CC[C@@H]3C[C@@H](O)CC(=O)O3)[C@H]21 [Lovastatin, lovastatin]

SMILES: CO[C@@]12[C@H](COC(N)=O)C3=C(C(=O)C(C)=C(N)C3=O)N1C[C@@H]1N[C@@H]12 [Mitomycin C]
- Fold-increase of BMP-induced ALP (over BMP alone control) [1]: 12.0

SMILES: O=C1c2c(O)ccc(O)c2C(=O)c2c(NCCNCCO)ccc(NCCNCCO)c21 [Mitoxantrone, mitoxantrone]
- cell lifting from culture plates [1]: caused cell lifting from culture plates
- Fold-increase of BMP-induced ALP (over BMP alone control) [1]: 4.0

SMILES: Cc1ccc(Nc2nccc(N(C)c3ccc4c(C)n(C)nc4c3)n2)cc1S(N)(=O)=O [Pazopanib]
- Fold-increase of BMP-induced ALP (over BMP alone control) [1]: 2.5

SMILES: COC1CC2CCC(C)C(O)(O2)C(=O)C(=O)N2CCCCC2C(=O)OC(C(C)CC2CCC(O)C(OC)C2)CC(=O)C(C)C=C(C)C(O)C(OC)C(=O)C(C)CC(C)C=CC=CC=C1C (centres unmarked) [Sirolimus, 9,10,12,13,14,21,22,23,24,25,26,27,32,33,34,34a-Hexadecahydro-9,27-dihydroxy-3-[2-[4-hydroxy-3-methoxycyclohexyl]-1-methylethyl]-10,21-dimethoxy-6,8,12,14,20,26-hexamethyl-23,27-epoxy-3H-pyrido[2,1-c][1,4]oxaazacyclohentriacontine-1,5,11,28,29(4H,6H,31H)-pentone]
- Ave. (Xray score) ([3]; dose 10 mM): 0.25
- Results (bone, animals with bone of 4) ([3]; dose 10 mM): Bone (1 of 4)
- Ave. (Xray score) ([3]; dose 15 mM): 0.5
- Results (bone, animals with bone of 4) ([3]; dose 15 mM): Bone (1 of 4)
- Ave. (Xray score) ([3]; dose 20 mM): 0.75
- Results (bone, animals with bone of 4) ([3]; dose 20 mM): Bone (1 of 4)
- Ave. (Xray score) ([3]; dose 25 mM): 2.75
- Results (bone, animals with bone of 4) ([3]; dose 25 mM): Bone (3 of 4)
- Ave. (Xray score) ([3]; dose 30 mM): 3.5
- Results (bone, animals with bone of 4) ([3]; dose 30 mM): Bone (3 of 4)
- Ave. (Xray score) ([3]; dose 35 mM): 4.25
- Results (bone, animals with bone of 4) ([3]; dose 35 mM): Bone (4 of 4)
- De novo bone formation [3]: De novo bone formation is demonstrated locally

SMILES: CCN(CC)CCNC(=O)c1c(C)[nH]c(/C=C2\C(=O)Nc3ccc(F)cc32)c1C [Sunitinib]
- Fold-increase of BMP-induced ALP (over BMP alone control) [1]: 4.0

SMILES: COc1cc([C@@H]2c3cc4c(cc3[C@@H](O[C@@H]3O[C@@H]5CO[C@@H](c6cccs6)O[C@H]5[C@H](O)[C@H]3O)[C@H]3COC(=O)[C@H]23)OCO4)cc(OC)c1O [Teniposide]
- Fold-increase of BMP-induced ALP (over BMP alone control) [1]: 7.0

SMILES: CC[C@@]1(O)C(=O)OCc2c1cc1n(c2=O)Cc2cc3c(CN(C)C)c(O)ccc3nc2-1 [Topotecan]
- Fold-increase of BMP-induced ALP (over BMP alone control) [1]: 4.0

SMILES: CCCCC(=O)OCC(=O)[C@]1(O)Cc2c(O)c3c(c(O)c2[C@@H](O[C@H]2C[C@H](NC(=O)C(F)(F)F)[C@H](O)[C@H](C)O2)C1)C(=O)c1c(OC)cccc1C3=O [Valrubicin]
- Fold-increase of BMP-induced ALP (over BMP alone control) [1]: 3.0

SMILES: CC[C@]1(O)C[C@H]2CN(CCc3c([nH]c4ccccc34)[C@@](C(=O)OC)(c3cc4c(cc3OC)N(C=O)[C@H]3[C@@](O)(C(=O)OC)[C@H](OC(C)=O)[C@]5(CC)C=CCN6CC[C@]43[C@@H]65)C2)C1 [Vincristine]
- Fold-increase of BMP-induced ALP (over BMP alone control) [1]: 5.0

- cell lifting from culture plates [1]: caused cell lifting from culture plates
SMILES: CCC1=C[C@@H]2CN(C1)Cc1c([nH]c3ccccc13)[C@@](C(=O)OC)(c1cc3c(cc1OC)N(C)[C@H]1[C@@](O)(C(=O)OC)[C@H](OC(C)=O)[C@]4(CC)C=CCN5CC[C@]31[C@@H]54)C2 [Vinorelbine tartrate]
- Fold-increase of BMP-induced ALP (over BMP alone control) [1]: 4.0

- cell lifting from culture plates [1]: caused cell lifting from culture plates
SMILES: C=C1/C(=C\C=C2/CCC[C@]3(C)[C@@H]([C@H](C)CCCC(C)(C)O)CC[C@@H]23)C[C@@H](O)C[C@@H]1O [calcitriol]

- cell lifting from culture plates [1]: caused cell lifting from culture plates
SMILES: CCCCCCNC(=O)n1cc(F)c(=O)[nH]c1=O [carmofur, 5-fluoro-N-hexyl-2,4-dioxo-3,4-dihydropyrimidine-1(2H)-carboxamide]

- cell lifting from culture plates [1]: caused cell lifting from culture plates
SMILES: CCN(CC)CCOc1ccc(C(=C(Cl)c2ccccc2)c2ccccc2)cc1 [clomid]

- cell lifting from culture plates [1]: caused cell lifting from culture plates
SMILES: COC(=O)Nc1nc2cc(C(=O)c3ccc(F)cc3)ccc2[nH]1 [flubendazole]

- cell lifting from culture plates [1]: caused cell lifting from culture plates
SMILES: CCC(C)n1ncn(-c2ccc(N3CCN(c4ccc(OCC5COC(Cn6cncn6)(c6ccc(Cl)cc6Cl)O5)cc4)CC3)cc2)c1=O (centres unmarked) [itraconazole, 4-(4-(4-(4((2((1H-1,2,4-triazol-1-yl)methyl)-2-(2,4-dichlorophenyl)-1,3-dioxolan-4-yl)methoxy)phenyl)piperazin-1-yl)phenyl)-1-(sec-butyl)-1H-1,2,4-triazol-5(4H)-one]
